Drawing on patent US5998654A, “Retinoic acid receptor antagonist compounds and methods” (Ligand Pharmaceuticals Incorporated, priority 1997, dated 1999), this text covers EC50 for four molecules.

One assay has as its target T1, RARγ (Homo sapiens, UniProt P13631).
T1 sequence (P13631 1-454): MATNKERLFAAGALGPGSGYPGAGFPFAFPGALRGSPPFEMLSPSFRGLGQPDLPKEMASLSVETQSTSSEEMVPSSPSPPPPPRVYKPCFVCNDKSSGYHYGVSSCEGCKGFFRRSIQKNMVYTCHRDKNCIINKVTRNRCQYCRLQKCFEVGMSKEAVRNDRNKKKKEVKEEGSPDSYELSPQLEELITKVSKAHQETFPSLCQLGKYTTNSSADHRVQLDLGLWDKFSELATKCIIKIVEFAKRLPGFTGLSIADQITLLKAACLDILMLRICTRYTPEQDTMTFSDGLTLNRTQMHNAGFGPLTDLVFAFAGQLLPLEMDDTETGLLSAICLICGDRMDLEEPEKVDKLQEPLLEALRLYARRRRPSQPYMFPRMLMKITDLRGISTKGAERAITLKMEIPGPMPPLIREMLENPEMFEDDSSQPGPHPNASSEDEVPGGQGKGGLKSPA
Put plainly: co-transfection assay, agonist activity on RARγ. The class given is cell-based. Further details: expressed in transfected cells; host or cells: CV-1 cells (African green monkey kidney). The settings on record: CV-1 cells; read-out: EC50 agonist potency, RARγ. The text has this:
(§1) This assay is described in further detail in U.S. Pat. Nos. 4,981,784 and 5,071,773, the disclosures of which are incorporated herein by reference.
(§2) In the co-transfection assay, a cloned cDNA for an IR (e.g., human RARα:, RARβ, RXRγ) under the control of a constitutive promoter (e.g., the SV 40 promoter) is introduced by transfection (a procedure to induce cells to take up foreign genes) into a background cell substantially devoid of endogenous IRs. This introduced gene directs the recipient cells to make the IR protein of interest. A second gene is also introduced (co-transfected) into the same cells in conjunction with the IR gene. This second gene, comprising the cDNA for a reporter protein, such as firefly luciferase (LUC), is controlled by an appropriate hormone responsive promoter containing a hormone response element (HRE). This reporter plasmid functions as a reporter for the transcription-modulating activity of the target IR. Thus, the reporter acts as a surrogate for the products (mRNA then protein) normally expressed by a gene under control of the target receptor and its native hormone.
(§3) The co-transfection assay can detect small molecule agonists or antagonists of target IRs. Exposing the transfected cells to an agonist ligand compound increases reporter activity in the transfected cells. This activity can be conveniently measured, e.g., by increasing luciferase production, which reflects compound-dependent, IR-mediated increases in reporter transcription. To detect antagonists, the co-transfection assay is carried out in the presence of a constant concentration of an agonist to the target IR (e.g., all-trans retinoic acid for RARα) known to induce a defined reporter signal. Increasing concentrations of a suspected antagonist will decrease the reporter signal (e.g., luciferase production). The co-transfection assay is therefore useful to detect both agonists and antagonists of specific IRs. Furthermore, it determines not only whether a compound interacts with a particular IR, but whether this interaction mimics (agonizes) or blocks (antagonizes) the effects of the native regulatory molecules on target gene expression, as well as the specificity and strength of this interaction.
(§4) CV-1 cells (African green monkey kidney fibroblasts) were cultured in the presence of Dulbecco's Modified Eagle Medium (DMEM) supplemented with 10% charcoal resin-stripped fetal bovine serum then transferred to 96-well microtiter plates one day prior to transfection. […]

A further assay concerns the target T2, RARβ (Homo sapiens, UniProt P10826).
T2 sequence (P10826 1-448 isoform P10826-2): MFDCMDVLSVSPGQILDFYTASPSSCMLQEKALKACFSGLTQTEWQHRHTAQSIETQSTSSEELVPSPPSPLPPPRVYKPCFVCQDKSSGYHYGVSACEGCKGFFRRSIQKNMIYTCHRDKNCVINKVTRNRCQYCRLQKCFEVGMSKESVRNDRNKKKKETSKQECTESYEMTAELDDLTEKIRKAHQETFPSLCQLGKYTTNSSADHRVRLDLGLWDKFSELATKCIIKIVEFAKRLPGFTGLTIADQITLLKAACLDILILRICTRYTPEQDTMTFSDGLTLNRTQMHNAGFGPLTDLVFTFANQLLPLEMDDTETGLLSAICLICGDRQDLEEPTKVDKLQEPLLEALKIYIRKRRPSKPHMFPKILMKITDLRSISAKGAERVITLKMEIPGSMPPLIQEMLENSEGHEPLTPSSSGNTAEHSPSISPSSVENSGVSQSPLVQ
The experiment in a line: co-transfection assay, agonist activity on RARβ. Further details: expressed in transfected cells; host or cells: CV-1 cells (African green monkey kidney). The settings on record: CV-1 cells; read-out: EC50 agonist potency, RARβ. The assay is classed as cell-based.
Source text: as §1, §2, §3, §4

Regarding `CCCCOc1c(C(C)(C)C)cc(/C(C)=C/C=C/C(C)=C/C(=O)O)cc1C(C)(C)C` [Compound 7, 2E, 4E, 6E-[7-(3,5-Di-t-butyl-4-n-butoxyphenyl)-3-methyl]-octa-2,4,6-trienoic acid], the EC50 at RARγ and at RARβ was above 10 µM throughout.
`CCCOc1c(C(C)(C)C)cc(/C(C)=C/C=C/C(C)=C/C(=O)O)cc1C(C)(C)C` [Compound 8, 2E, 4E, 6E-[7-(3,5-Di-t-butyl-4-n-propoxyphenyl)-3-methyl]-octa-2,4,6-trienoic acid]: the EC50 at RARγ and at RARβ was above 10 µM in each case.
As to `CCCCCOc1c(C(C)(C)C)cc(/C(C)=C/C=C/C(C)=C/C(=O)O)cc1C(C)(C)C` [Compound 9, 2E, 4E, 6E-[7-(3,5-Di-t-butyl-4-n-pentoxyphenyl)-3-methyl]-octa-2,4,6-trienoic acid], the EC50 on RARγ and on RARβ was above 10 µM each time.
Turning to `C=C(c1ccccc1)c1cc(/C(C)=C/C=C/C(C)=C/C(=O)O)cc(C(C)(C)C)c1` [Compound 17, (2E,4E,6E)-7-[3-t-butyl-5-(1-phenyl-vinyl)-phenyl]-3-methyl-octa-2,4,6-trienoic acid], the EC50 at RARγ and on RARβ was above 10 µM each time.
